Consider 1 compound from patent US20200239398A1, “METHYLENE-CYCLOALKYLACETATE DERIVATIVES AND THEIR USE IN TREATMENT OF NEUROTROPIC CONDITIONS” (Yissum Research Development Company of The Hebrew …, priority 2018, published 2020).

Several values for one entry are separate records, joined by “and”; a condition that tells them apart may be missing. Equal entries are not always repeated.

The subject of data set [1] is male C57BL/6 mice. As to the kind of experiment: Sensory motor/neurological-neurobehavioral tests (mNSS). The class given is in vivo. The following applies: 250 mg/kg iv; for Angle of increase / Beam balance (score) / Hind limb (placing test score) / mNSS / Foot fault / Self-suspension time: individual animal; for Foot fault / Self-suspension time: listed as HU-MCA-13, 250 mg/kg. As to the method: This pilot study was conducted to obtain acute information of the dose toxicity of HU-MCA-13 (Compound 13 in Scheme 1) in male mice. Male C57BL/6 mice, were injected intravenously with 0.2 ml of HU-MCA-13 in a dose of 250 mg/kg. Mice were monitored for 4 consecutive weeks for autonomic and neurotoxicity symptoms. The mortality and changes on body weight, clinical signs, gross observation, were monitored up to 30 days after treatment. No mortality was found at this high dose of 250 mg/kg. […] The mice were examined once a week for autonomic symptoms by measuring salivation, urinary delivery, pupillary constriction, heart rate, blood pressure, and hair contraction. […] Occurrences of either flaccid or spastic paralysis of the legs were not observed. […] Furthermore, no mice sudden deaths occurred within 24 hours after the injection or during the 4 weeks of observation. […] Sensory motor tests were scored individually and according to the modified neurologic function severity score (mNSS). The data from each individual test and the total score calculated from individual tests that make up the mNSS were measured. The following assays were used: a. beam balance test—mice were placed on a 1-inch wide beam for 60 seconds. A normal response is balance with steady posture for 60 seconds (a score of 0). Deficits are scored if the rat: grasps the side of the beam (a score of 1), hugs the beam and one limb falls down from the beam (a score of 2), hugs the beam and two limbs fall off the beam (a score of 3), attempts to balance on the beam, but falls off from 60 seconds (a score of 4), attempts to balance on the beam but falls off from […], or falls off with no attempt to balance or hang on the beam in <20 seconds (a score of 6); b. foot fault test—forelimb movement dysfunction, while walking on elevated metal grids, was monitored. The animal was placed on horizontal grids (85.5×26.5×20) cm with a glass enclosure for observation. With each weight bearing step, the forelimb can fall or slip between the metal support bars, an event recorded as a foot fault. The total number of forelimb steps and the total number of foot faults were recorded. The percentage of forelimb foot faults to the total steps that occurred within 2 minutes marks the test results; c. hind limb placing test—This test monitors reposition of hind limbs placed down and away from the table edge. The ability to retrieve and place the hind limbs back onto the table was scored. Immediate and complete limb retrieval was scored 0, delayed (>2 seconds) limb retrieval and/or interspersed flailing was scored 1, and no limb retrieval was scored 2; d. Increasing platform angle to slide test—This test monitors the strength and stability of resistance to slide down an inclined platform. It deploys a clean wooden board (60 cm by 40 cm) positioned horizontally. Mice were placed on the board with head facing up the increasing incline. The board then swings to increase the degree of inclination the rat experiences until slipping down the board feet first. The degree of the angle at which the rat relinquishes their grip/stance on the board (slips down) constitute the test results; e. the forelimb whole body suspension test—The test measures grip strength by duration of suspension by forepaws. The rat is suspended on a metal bar (diameter 5 mm) which it tightly holds onto by its forelimbs. The time (seconds) during which each rat could sustain its body weight while holding onto the bar is recorded. The mice drop from the bar onto soft material with no harm. The test was repeated three times and a mean result per rat was used as the score. Cumulatively these sensory motor/neurological findings indicate acute tolerability of 250 mg/kg HU-MCA-13 iv injection in Male C57BL/6 mice.

Data set [2] relates to spinal cord motor neurons. As to the kind of experiment: Neurite outgrowth in adult rat spinal cord primary cultures. The class given is cell-based. The following applies: 10 μM HU-MCA-13 for 7 days. The method, then: To study the effect of HU-MCA-13 on adult rat spinal cord primary cultures in vitro, a purification procedure was developed that yields highly enriched motor neurons cultures. Spinal cord motor neuron cultures are an important tool for the study of mechanisms involved in motor neuron survival, degeneration and regeneration, motor neuron disorders such as amyotrophic lateral sclerosis or spinal muscular atrophy as well as in spinal cord injury. This bioassay was performed using vehicle (1% DMSO) DMEM negative control and 10 μM HU-MCA-13, tested compound. Briefly, dissected pieces of adult rat spinal cord tissue were maintained in phosphate-buffered saline (PBS) without Ca^2+ and Mg^2+ and pooled together and transferred to an enzymatic dissociation media containing 20 IU/ml papain in Earle's balanced salt solution (Worthington Biochemical, Freehold, N.J.) and incubated for 30 min at 37° C. After enzymatic dissociation, the papain solution was aspirated and the tissue was mechanically triturated with a fire-polished Pasteur pipette in complete media [Neurobasal Medium with B-27 supplement (Gibco, Grand Island, N.Y.), 100 IU/ml penicillin, […], 3.3 μg/ml aphidicolin, 0.5 mM glutamate] containing 2000 IU/ml DNase and 10-mg/ml protease inhibitors. Single-cell suspensions in complete media was plated on pre-coated collagen IV/laminin mixture-coated 96-well plates (Becton-Dickinson, Bedford, Mass.) at a density of 1.0×10^4 cells/well. The spinal cord motor neurons (red arrows) and accessory Schwann cells (orange) were maintained for one day in culture and then exposed to 1% DMSO-DMEM negative control or 10 μM HU-MCA-13 for 7 days. The cultures were photographed, and Image analysis was performed. Neurite outgrowth was measured and quantified as for PC12 cultures, focusing on two parameters: a. SUM-total area covered by neurite outgrowths; b. mean length of a neurite (microns).

For `C=CCC1CCC[C@@H](CCC(=O)O)C1=C` (stereo partly shown) [Compound 13], the sensory motor/neurological performance result in data set [1] (weekly routine motor tests) is “no neurological losses were observed”. Moreover, in data set [1] (Day 0), the Angle of increase is recorded as 35 degrees, the “Beam balance (score)” value amounted to 0, the “Hind limb (placing test score)” value is reported as 0 and the mNSS was determined as 0. Moreover, in data set [1] (Day 0), the Foot fault is 0/34 and 0/41 and 0/38 and 1/48; the Self-suspension time was 8 seconds and 10 seconds (2×) and 9 seconds. In data set [1] (Day 1), the Angle of increase was found to be 35 degrees, the “Beam balance (score)” value is 0, the “Hind limb (placing test score)” value is recorded as 0 and the mNSS was found to be 0. In data set [1] (Day 1), the Foot fault is 0/20 and 0/15 and 0/34 and 0/14; the Self-suspension time was 14 seconds and 12 seconds (2×) and 15 seconds. Besides, in data set [1] (Day 5), the Angle of increase is recorded as 35 degrees, the “Beam balance (score)” value is given as 0, the “Hind limb (placing test score)” value amounted to 0 and the mNSS was found to be 0. For the same compound, in data set [1] (Day 5), the Foot fault is 2/50 and 1/47 and 0/48 and 0/36; the Self-suspension time was 13 seconds (2×) and 15 seconds and 14 seconds. Besides, in data set [2], the “mean length of the neurite” value is given as 350 micrometer, the “neurotropic effect versus control medium” value was “four folds neurotropic effect” and the “total (SUM) neurite length” value was 600 micrometer.
